In ChEMBL document CHEMBL1201862, “PubChem BioAssay data set” (2004):
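Values below derive from 48-hour exposures of cells grown in 96-well plates, with endpoints linearly interpolated between the two concentrations bracketing the appropriate inhibition level. At the GI50, growth is halved.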 The source made the active and inactive calls. No stated cut-off is given here; in the data, active = GI50 up to about 1.1 µM and inactive = higher.

Legend:
Experiment in all cases: NCI tumour cell line growth inhibition, 48 h
OVCAR-4 = tested on: OVCAR-4
CAKI-1 = tested on: CAKI-1
HOP-92 = tested on: HOP-92
HT-29 = tested on: HT-29
NCI/ADR-RES = tested on: NCI/ADR-RES
SK-MEL-5 = tested on: SK-MEL-5
A498 = tested on: A498
K562 = tested on: K562
T47D = tested on: T47D
DU-145 = tested on: DU-145
SW-620 = tested on: SW-620
CCRF-CEM = tested on: CCRF-CEM
SK-OV-3 = tested on: SK-OV-3
U-251 = tested on: U-251
M14 = tested on: M14
BT-549 = tested on: BT-549
SNB-19 = tested on: SNB-19
LOX IMVI = tested on: LOX IMVI
SR = tested on: SR

For `CC(=O)Oc1ccc(/C=C/C(=O)OCCOC(=O)/C=C/c2ccc(OC(C)=O)c(OC(C)=O)c2)cc1OC(C)=O`, the GI50 (OVCAR-4) was 4.63 µM (inactive), the GI50 (CAKI-1) was 3.26 µM (inactive) and the GI50 (HOP-92) was 5.77 µM (inactive). The GI50 (HT-29) was 18.6 µM (inactive), the GI50 (NCI/ADR-RES) was 4.06 µM (inactive) and the GI50 (SK-MEL-5) was 7.36 µM (inactive). For the same compound, the GI50 (A498) was 22 µM (inactive), the GI50 (K562) was 4.89 µM (inactive) and the GI50 (T47D) was 13 µM (inactive). For the same compound, the GI50 (DU-145) was 9.06 µM (inactive), the GI50 (SW-620) was 9.38 µM (inactive) and the GI50 (CCRF-CEM) was 1.25 µM (inactive). For the same compound, the GI50 (SK-OV-3) was 13.9 µM (inactive), the GI50 (U-251) was 4.99 µM (inactive) and the GI50 (M14) was 10.8 µM (inactive). The GI50 (BT-549) was 15.7 µM (inactive), the GI50 (SNB-19) was 11.9 µM (inactive) and the GI50 (LOX IMVI) was 4.59 µM (inactive). For the same compound, the GI50 (SR) was 3.78 µM (inactive).
With `CCCCCC1=CC(=O)C1(Cl)Cl` the GI50 (OVCAR-4) was 15.9 µM (inactive), the GI50 (CAKI-1) was 8.3 µM (inactive) and the GI50 (HOP-92) was 13.4 µM (inactive). The GI50 (HT-29) was 14.6 µM (inactive), the GI50 (NCI/ADR-RES) was 17.9 µM (inactive) and the GI50 (SK-MEL-5) was 9.48 µM (inactive). The GI50 (A498) was 20.4 µM (inactive), the GI50 (K562) was 4.68 µM (inactive) and the GI50 (T47D) was 8.24 µM (inactive). The GI50 (DU-145) was 13.1 µM (inactive), the GI50 (SW-620) was 11.9 µM (inactive) and the GI50 (CCRF-CEM) was 2.23 µM (inactive). For the same compound, the GI50 (SK-OV-3) was 33.9 µM (inactive), the GI50 (U-251) was 9.23 µM (inactive) and the GI50 (M14) was 18.4 µM (inactive). The GI50 (BT-549) was 17.9 µM (inactive), the GI50 (SNB-19) was 24.9 µM (inactive) and the GI50 (LOX IMVI) was 6.52 µM (inactive). For the same compound, the GI50 (SR) was 6 µM (inactive).
`O=C(NNS(=O)(=O)c1ccccc1)c1csc(NC(=S)NC2CCCCC2)n1` was tested, and the GI50 (OVCAR-4) was 34.6 µM (inactive), the GI50 (CAKI-1) was 28.4 µM (inactive) and the GI50 (HOP-92) was 55.2 µM (inactive). For the same compound, the GI50 (HT-29) was 33.6 µM (inactive), the GI50 (NCI/ADR-RES) was 38.4 µM (inactive) and the GI50 (SK-MEL-5) was 14.4 µM (inactive). For the same compound, the GI50 (A498) was 80.5 µM (inactive), the GI50 (K562) was 56.6 µM (inactive) and the GI50 (T47D) was 18.7 µM (inactive). The GI50 (DU-145) was 27.2 µM (inactive), the GI50 (SW-620) was 25 µM (inactive) and the GI50 (CCRF-CEM) was 39.6 µM (inactive). The GI50 (SK-OV-3) was 42.2 µM (inactive), the GI50 (U-251) was 33.5 µM (inactive) and the GI50 (M14) was 39.2 µM (inactive). The GI50 (BT-549) was 25.4 µM (inactive), the GI50 (LOX IMVI) was 17.1 µM (inactive) and the GI50 (SR) was 36.9 µM (inactive).
In the case of `O=[As](O)(O)c1ccc(Cc2ccc([As](=O)(O)O)cc2)cc1`, the GI50 (OVCAR-4) is reported as 1.9 µM (inactive), the GI50 (CAKI-1) is reported as 0.955 µM (active) and the GI50 (HOP-92) is reported as 1.5 µM (inactive). For the same compound, the GI50 (HT-29) was 0.778 µM (active), the GI50 (NCI/ADR-RES) was 1.48 µM (inactive) and the GI50 (SK-MEL-5) was 0.632 µM (active). The GI50 (A498) was 2.12 µM (inactive), the GI50 (K562) was 0.265 µM (active) and the GI50 (T47D) was 0.312 µM (active). The GI50 (DU-145) was 0.336 µM (active), the GI50 (SW-620) was 0.27 µM (active) and the GI50 (CCRF-CEM) was 0.0813 µM (active). The GI50 (SK-OV-3) was 2.15 µM (inactive), the GI50 (U-251) was 0.371 µM (active) and the GI50 (M14) was 1.06 µM (active). The GI50 (BT-549) was 1.18 µM (inactive), the GI50 (SNB-19) was 1.15 µM (inactive) and the GI50 (LOX IMVI) was 0.336 µM (active). The GI50 (SR) was 0.269 µM (active).
With `Cc1c(O)ccc2c(O)c(NC(=O)c3ccc4c(c3)CCC(C)(C)O4)c(=O)oc12` [CYCLONOVOBIOCIC ACID] the GI50 (OVCAR-4) was > 100 µM (inactive), the GI50 (CAKI-1) was > 100 µM (inactive) and the GI50 (HOP-92) was > 100 µM (inactive). The GI50 (HT-29) was > 100 µM (inactive), the GI50 (NCI/ADR-RES) was > 100 µM (inactive) and the GI50 (SK-MEL-5) was > 100 µM (inactive). For the same compound, the GI50 (A498) was 45.8 µM (inactive), the GI50 (K562) was > 100 µM (inactive) and the GI50 (T47D) was > 100 µM (inactive). The GI50 (DU-145) was > 100 µM (inactive), the GI50 (SW-620) was > 100 µM (inactive) and the GI50 (CCRF-CEM) was > 100 µM (inactive). The GI50 (SK-OV-3) was > 100 µM (inactive), the GI50 (U-251) was > 100 µM (inactive) and the GI50 (BT-549) was > 100 µM (inactive). For the same compound, the GI50 (SNB-19) was > 100 µM (inactive), the GI50 (LOX IMVI) was > 100 µM (inactive) and the GI50 (SR) was > 100 µM (inactive).
For `Nc1nc(N)c2ncn(Cc3ccccc3CCl)c2n1`, the GI50 (OVCAR-4) was 80.5 µM (inactive), the GI50 (CAKI-1) was > 100 µM (inactive) and the GI50 (HOP-92) was > 100 µM (inactive). For the same compound, the GI50 (HT-29) was > 100 µM (inactive), the GI50 (NCI/ADR-RES) was > 100 µM (inactive) and the GI50 (SK-MEL-5) was 51.1 µM (inactive). For the same compound, the GI50 (A498) was > 100 µM (inactive), the GI50 (K562) was 50.4 µM (inactive) and the GI50 (T47D) was > 100 µM (inactive). For the same compound, the GI50 (DU-145) was > 100 µM (inactive), the GI50 (SW-620) was > 100 µM (inactive) and the GI50 (CCRF-CEM) was 88.1 µM (inactive). The GI50 (SK-OV-3) was > 100 µM (inactive), the GI50 (U-251) was > 100 µM (inactive) and the GI50 (M14) was > 100 µM (inactive). For the same compound, the GI50 (BT-549) was > 100 µM (inactive), the GI50 (SNB-19) was > 100 µM (inactive) and the GI50 (SR) was 8.51 µM (inactive).
With `Cc1cc(S(=O)(=O)Nc2n[nH]c(-c3ccc(Cl)cn3)n2)c(S)cc1Cl` the GI50 (OVCAR-4) was 53.8 µM (inactive), the GI50 (CAKI-1) was 44 µM (inactive) and the GI50 (HOP-92) was 9.04 µM (inactive). The GI50 (HT-29) was 39.3 µM (inactive), the GI50 (NCI/ADR-RES) was 85.5 µM (inactive) and the GI50 (SK-MEL-5) was 44.4 µM (inactive). The GI50 (A498) was 87.3 µM (inactive), the GI50 (T47D) was 31 µM (inactive) and the GI50 (DU-145) was > 100 µM (inactive). The GI50 (SW-620) was 83.6 µM (inactive), the GI50 (SK-OV-3) was 88.3 µM (inactive) and the GI50 (U-251) was 39 µM (inactive). The GI50 (M14) was 76.6 µM (inactive), the GI50 (BT-549) was 32.2 µM (inactive) and the GI50 (SNB-19) was 30.1 µM (inactive). For the same compound, the GI50 (LOX IMVI) was > 100 µM (inactive) and the GI50 (SR) was 47.8 µM (inactive).
